Measured values taken from patent US20220356174A1, “PYRIDIN-2-ONE COMPOUNDS USEFUL AS SMARCA2 ANTAGONISTS” (Epizyme, Inc., priority 2018, published 2022).

Experiments:
A549 cells = test: High-throughput proliferation (HTP) assay for A549 cells (CellTiter-Glo, 7 days); assay type: cell-based; conditions: Homo sapiens, 168 h, read-out: A549 SMARCA2 IC50
Experimental: Thawing vials: A549 cells (ATCC #CCL-185™) were thawed from a cryovial containing approximately 1.6×10^6 cells frozen in 70% F12K medium, 20% HI-FBS and 10% DMSO. Cells were thawed by submerging the bottom half of the vial in a 37° C. water bath and gently flicked until almost thawed. The cells were transferred into a 15 mL conical tube containing 9 mL of F12K medium+10% HI-FBS and then centrifuged at 200×g for 4 min before drawing off the media without disturbing the cell pellet in order to remove the DMSO. The cells were resuspended again in 15 mL of F12K fresh complete media+10% HI-FBS and grown up in a T75 flask at 37° C. with 5% CO2 Incubator. Viability was measured to obtain baseline.
Frozen stock vials preparation: The cell culture was transferred to a 50 mL conical tube, spun down to remove medium, and resuspended at 1-2×10^6 cells/mL in complete medium containing 10% DMSO. The culture was then stored for 24 hours at −80 degree C., (with the initial rate of freezing is −1 degree C. per minute in a freezing container), then transferred and stored in liquid nitrogen.
Routine subculture: Sub-confluent cultures (70-80%) were split every 4 days, seeding out at 1-2×10^6 cells/75 cm^2.
Day 0: Assay ready plates were prepared by dispensing 50 nL of compound or DMSO in the appropriate wells of 384-well white CulturPlates using Echo550. Using the Multiflo, A549 cells were plated at 50 μL/well in F12K complete media+10% HI-FBS+1% pen/strep at cell density determined [1,250 cells/mL (62.5 cells/well)] from growth curve.
Treated cells were incubated at 37° C., 5% CO2, relative humidity >90% for 7 days. CellTiter-Glo (CTG) ATP detection reagent was prepared according to manufacturer's specifications. Cell assay plates were removed from the incubator and brought to room temperature (RT). Using the MultiDrop liquid handler, 30 μL of CTG were added per well. Plates were placed on the multidrop dispenser shake for 5 seconds at room temperature (RT). Plates were incubated for 30 minutes in the dark at RT before measuring luminescence using the Envison2104.
Data analysis: Using the DMSO control wells as the 0% inhibition (high signal) control and the 10 μM Doxorubicin control wells as the 100% inhibition (low signal) control, percent inhibition EC50s (inflection point) and IC50 s were calculated for the compound dose responses.

FL-SMARCA4 = FL-SMARCA4 (Homo sapiens, UniProt P51532); test: SMARCA4 ATPase activity assay (ADP-Glo, chicken mononucleosome substrate); conditions: FL-SMARCA4 IC50, Table 3.2; ATPase assay, enzyme 5 nM, ATP 250 uM, chicken mononucleosome 10 nM, 30 min preincubation
Sequence of FL-SMARCA4 (P51532 whole entry, canonical isoform): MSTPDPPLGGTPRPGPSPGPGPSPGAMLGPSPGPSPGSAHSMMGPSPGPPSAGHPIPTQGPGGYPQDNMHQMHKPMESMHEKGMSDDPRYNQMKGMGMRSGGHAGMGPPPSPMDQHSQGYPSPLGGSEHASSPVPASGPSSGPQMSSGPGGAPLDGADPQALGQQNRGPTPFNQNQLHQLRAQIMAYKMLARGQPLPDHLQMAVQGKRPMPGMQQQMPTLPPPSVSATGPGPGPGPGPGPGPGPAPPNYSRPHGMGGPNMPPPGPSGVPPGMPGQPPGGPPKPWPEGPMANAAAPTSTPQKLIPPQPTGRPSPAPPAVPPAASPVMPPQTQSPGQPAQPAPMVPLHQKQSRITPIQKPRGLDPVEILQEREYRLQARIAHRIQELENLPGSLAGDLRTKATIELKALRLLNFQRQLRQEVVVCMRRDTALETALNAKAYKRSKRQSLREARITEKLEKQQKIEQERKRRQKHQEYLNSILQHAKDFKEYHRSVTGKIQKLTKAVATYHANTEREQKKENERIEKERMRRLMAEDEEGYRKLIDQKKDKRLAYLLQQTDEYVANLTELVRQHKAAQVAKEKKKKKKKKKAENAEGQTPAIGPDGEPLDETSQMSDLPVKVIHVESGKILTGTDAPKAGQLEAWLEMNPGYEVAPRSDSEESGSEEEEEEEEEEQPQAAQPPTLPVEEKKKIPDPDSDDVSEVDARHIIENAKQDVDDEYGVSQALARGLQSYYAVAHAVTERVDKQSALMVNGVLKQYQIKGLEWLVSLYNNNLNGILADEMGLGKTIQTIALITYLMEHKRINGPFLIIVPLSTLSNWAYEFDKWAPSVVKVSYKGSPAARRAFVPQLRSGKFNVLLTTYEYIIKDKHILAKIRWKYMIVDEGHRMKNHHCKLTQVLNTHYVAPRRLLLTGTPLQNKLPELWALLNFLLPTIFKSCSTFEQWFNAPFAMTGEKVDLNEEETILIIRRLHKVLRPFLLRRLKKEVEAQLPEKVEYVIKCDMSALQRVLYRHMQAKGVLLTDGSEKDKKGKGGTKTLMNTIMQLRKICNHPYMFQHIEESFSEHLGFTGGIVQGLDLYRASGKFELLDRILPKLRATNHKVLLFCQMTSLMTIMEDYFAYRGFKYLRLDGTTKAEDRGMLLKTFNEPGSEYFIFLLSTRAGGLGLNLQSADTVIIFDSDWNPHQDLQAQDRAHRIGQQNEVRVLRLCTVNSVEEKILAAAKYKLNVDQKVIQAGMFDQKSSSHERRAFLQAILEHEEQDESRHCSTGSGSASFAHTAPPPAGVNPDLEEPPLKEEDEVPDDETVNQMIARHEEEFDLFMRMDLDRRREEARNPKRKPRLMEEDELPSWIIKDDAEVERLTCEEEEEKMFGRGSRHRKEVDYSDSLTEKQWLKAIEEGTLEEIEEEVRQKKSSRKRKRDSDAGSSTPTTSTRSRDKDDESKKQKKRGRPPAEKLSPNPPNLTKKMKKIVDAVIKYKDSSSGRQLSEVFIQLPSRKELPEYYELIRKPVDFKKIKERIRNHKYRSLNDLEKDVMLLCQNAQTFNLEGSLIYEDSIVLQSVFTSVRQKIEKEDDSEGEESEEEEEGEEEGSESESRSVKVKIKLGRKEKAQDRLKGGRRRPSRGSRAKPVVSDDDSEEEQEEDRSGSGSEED

[1] = target: T1, FL-SMARCA2 (full-length human SMARCA2 isoform 1) (Homo sapiens, UniProt P51531); test: SMARCA2 ATPase activity assay (ADP-Glo, chicken mononucleosome substrate); assay type: biochemical; conditions: Table 3.1; ATPase assay, enzyme 5 nM, ATP 250 uM, chicken mononucleosome 10 nM, 30 min preincubation
T1 construct: FLAG tag (YKDDDDK) (C); made in house; host or cells: Sf21 insect cells (baculovirus, pFastBacI)
T1 sequence (P51531 with tags, fused parts or gaps): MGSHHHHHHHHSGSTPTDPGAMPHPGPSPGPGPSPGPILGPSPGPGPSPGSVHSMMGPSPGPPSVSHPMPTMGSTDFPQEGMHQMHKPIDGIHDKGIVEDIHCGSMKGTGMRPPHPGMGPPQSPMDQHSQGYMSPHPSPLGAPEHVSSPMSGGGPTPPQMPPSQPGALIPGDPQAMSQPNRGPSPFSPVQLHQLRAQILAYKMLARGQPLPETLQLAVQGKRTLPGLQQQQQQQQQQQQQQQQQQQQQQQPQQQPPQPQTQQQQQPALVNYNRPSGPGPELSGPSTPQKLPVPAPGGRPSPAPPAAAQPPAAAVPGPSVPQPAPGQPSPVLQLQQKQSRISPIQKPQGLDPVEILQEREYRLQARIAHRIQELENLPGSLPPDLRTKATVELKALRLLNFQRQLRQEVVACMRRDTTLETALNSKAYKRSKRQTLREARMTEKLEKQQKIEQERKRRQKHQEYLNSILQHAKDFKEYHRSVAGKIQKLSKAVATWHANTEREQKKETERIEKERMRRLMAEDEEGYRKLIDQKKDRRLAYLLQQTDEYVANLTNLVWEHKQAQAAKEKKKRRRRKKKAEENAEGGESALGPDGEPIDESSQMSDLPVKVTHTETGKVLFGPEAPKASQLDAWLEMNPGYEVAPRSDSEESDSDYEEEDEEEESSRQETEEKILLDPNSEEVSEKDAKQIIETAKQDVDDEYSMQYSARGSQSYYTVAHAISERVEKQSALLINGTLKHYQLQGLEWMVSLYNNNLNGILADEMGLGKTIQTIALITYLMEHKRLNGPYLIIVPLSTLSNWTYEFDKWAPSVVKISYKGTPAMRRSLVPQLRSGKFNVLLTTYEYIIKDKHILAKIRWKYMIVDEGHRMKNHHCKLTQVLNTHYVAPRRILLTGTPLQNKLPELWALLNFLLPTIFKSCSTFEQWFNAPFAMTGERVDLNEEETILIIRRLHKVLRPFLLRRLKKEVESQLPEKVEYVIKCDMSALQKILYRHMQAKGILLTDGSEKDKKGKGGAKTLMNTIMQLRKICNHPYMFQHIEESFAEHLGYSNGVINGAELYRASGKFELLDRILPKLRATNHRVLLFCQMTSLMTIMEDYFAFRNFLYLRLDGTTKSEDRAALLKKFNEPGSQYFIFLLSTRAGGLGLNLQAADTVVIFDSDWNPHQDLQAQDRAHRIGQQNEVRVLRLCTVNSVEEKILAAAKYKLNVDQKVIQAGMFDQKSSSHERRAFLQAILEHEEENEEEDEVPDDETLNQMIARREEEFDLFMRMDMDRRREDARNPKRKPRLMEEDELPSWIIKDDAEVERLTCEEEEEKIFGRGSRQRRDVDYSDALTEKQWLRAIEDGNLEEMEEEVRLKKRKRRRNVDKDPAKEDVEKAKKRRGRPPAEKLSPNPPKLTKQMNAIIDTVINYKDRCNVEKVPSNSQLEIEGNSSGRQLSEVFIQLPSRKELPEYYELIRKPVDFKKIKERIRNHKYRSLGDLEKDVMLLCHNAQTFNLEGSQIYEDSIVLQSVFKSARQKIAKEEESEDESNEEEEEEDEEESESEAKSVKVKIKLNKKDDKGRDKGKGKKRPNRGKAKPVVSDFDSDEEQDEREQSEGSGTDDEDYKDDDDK

SMILES	IC50 (A549 cells) [µM]	IC50 (FL-SMARCA4) [nM]	IC50 [1] [nM]
N#Cc1cc(C(=O)Nc2ccc(=O)n(CCF)c2)sc1C#N [Compound 182]	≥ 20	126	35.5
N#Cc1ncc(C(=O)Nc2cc(C#N)c(=O)n(CCF)c2)s1 [Compound 203]	≥ 20	118	40.7
N#Cc1cc(C(=O)Nc2cc(F)c(=O)n(CC(F)(F)F)c2)sc1Cl [Compound 207]	0.892	342	72.9
Cn1c(C(=O)Nc2cc(F)c(=O)n(CCF)c2)cnc1C#N [Compound 220]	≥ 20	1930	488
Cc1ncc(C(=O)Nc2cc(F)c(=O)n(CCF)c2)s1 [Compound 222]	≥ 20	10200	1310
COc1ncc(C(=O)Nc2cc(F)c(=O)n(CCF)c2)s1 [Compound 223]	≥ 20	> 50000	18400
N#Cc1[nH]c(C(=O)Nc2ccc(=O)n(CCF)c2)cc1Cl [Compound 231]	≥ 20	544	142
N#Cc1[nH]c(C(=O)Nc2cc(F)c(=O)n(CCF)c2)cc1Cl [Compound 232]	15.5	111	24.9
N#Cc1[nH]c(C(=O)Nc2ccc(=O)n(CC(F)(F)F)c2)cc1Cl [Compound 234]	≥ 20	1740	478
CCn1cc(NC(=O)c2cc(Cl)c(C#N)[nH]2)cc(F)c1=O [Compound 235]	≥ 20	272	59.1
CCn1cc(NC(=O)c2cc(Cl)c(C#N)[nH]2)cc(Cl)c1=O [Compound 236]	≥ 20	555	125
N#Cc1[nH]c(C(=O)Nc2cc(Cl)c(=O)n(CC(F)(F)F)c2)cc1Cl [Compound 237]	≥ 20	863	201
N#Cc1[nH]c(C(=O)Nc2cc(C#N)c(=O)n(CCF)c2)cc1Cl [Compound 238]	7.27	879	232
N#Cc1cc(C(=O)Nc2cc(Cl)c(=O)n(CCF)c2)[nH]c1Cl [Compound 240]	≥ 20	2390	626
N#Cc1[nH]c(C(=O)Nc2cc(F)c(=O)n(CC(F)(F)F)c2)cc1Cl [Compound 242]	17.4	168	38.9
O=C(Nc1cc(F)c(=O)n(CCF)c1)c1cc(Cl)c(F)s1 [Compound 251]	5.46	623	131
O=C(Nc1cc(F)c(=O)n(CCF)c1)c1cnc([N+](=O)[O-])s1 [Compound 275]	≥ 20	2100	381
CS(=O)(=O)c1csc(C(=O)Nc2cc(F)c(=O)n(CCF)c2)c1 [Compound 302]	> 10	> 50000	> 50000
NS(=O)(=O)c1cc(C(=O)Nc2cc(F)c(=O)n(CCF)c2)sc1Cl [Compound 310]		> 50000	> 50000
Cn1cnc(-c2ccc(C(=O)Nc3cc(F)c(=O)n(CCF)c3)s2)c1 [Compound 311]		> 50000	> 50000
O=C(Nc1cc(F)c(=O)n(CCF)c1)c1ccc(-c2ccn[nH]2)s1 [Compound 312]		> 50000	> 50000
O=C(Nc1cc(F)c(=O)n(CCF)c1)c1ccc(-c2cccnc2)s1 [Compound 313]		> 50000	> 50000

SMILES	IC50 (A549 cells) [µM]	IC50 (FL-SMARCA4) [nM]	IC50 [1] [nM]
O=C(Nc1cc(F)c(=O)n(CCF)c1)c1ccc(-c2ccncc2)s1 [Compound 314]		> 50000	> 50000
CC(=O)Nc1sc(C(=O)Nc2cc(F)c(=O)n(CCF)c2)cc1Cl [Compound 315]		> 50000	> 50000
Cn1ccnc1-c1ccc(C(=O)Nc2cc(F)c(=O)n(CCF)c2)s1 [Compound 316]		> 50000	> 50000
O=C(Nc1cc(F)c(=O)n(CCF)c1)c1ccc(-c2nccs2)s1 [Compound 317]		> 50000	> 50000
O=C(Nc1cc(F)c(=O)n(CC(F)F)c1)c1cc(-c2nnco2)c(Cl)s1 [Compound 318]		13500	2880
O=C(Nc1cc(F)c(=O)n(CCF)c1)c1cc(Cl)c(CC(F)(F)F)s1 [Compound 319]		16600	1320
N#Cc1cc(C(=O)Nc2ccc(=O)n(CC(F)F)c2)sc1Cl [Compound 320]		562	151
O=C(Nc1cc(F)c(=O)n(CCF)c1)c1ccc(C(F)(F)CO)s1 [Compound 322]		> 50000	> 50000
O=C(Nc1cc(F)c(=O)n(CC(F)F)c1)c1cc(Cl)no1 [Compound 326]		17200	3780
O=C(Nc1cc(F)c(=O)n(CCF)c1)c1cc(C#Cc2cccnc2)c(Cl)s1 [Compound 328]		108	38.4
O=C(Nc1cc(F)c(=O)n(CC(F)F)c1)c1cc(C#Cc2cccnc2)c(Cl)s1 [Compound 329]		111	31.2
CC(F)Cn1cc(NC(=O)c2cc(Cl)c(C(F)(F)F)s2)cc(F)c1=O (stereo not shown) [Compound 331]		924	172
Nc1c(C(=O)Nc2cc(F)c(=O)n(CC(F)F)c2)sc(Cl)c1Cl [Compound 332]		2200	331
CCn1cc(NC(=O)c2cc(C#Cc3ccncc3)c(Cl)s2)ccc1=O [Compound 334]		337	182
CNc1c(C(=O)Nc2cc(F)c(=O)n(CC(F)F)c2)sc(Cl)c1Cl [Compound 335]		45100	7460
O=C(Nc1cc(C(F)(F)F)c(=O)n(CC(F)F)c1)c1cc(F)c(Cl)s1 [Compound 336]	> 10	5870	1240
O=C(Nc1cc(Cl)c(=O)n(CC(F)F)c1)c1cc(F)c(Cl)s1 [Compound 337]	0.769	104	33.7
N#Cc1cc(NC(=O)c2cc(F)c(Cl)s2)cn(CC(F)F)c1=O [Compound 338]	3.21	363	89
CC(O)C#Cc1cc(C(=O)Nc2cc(F)c(=O)n(CC(F)F)c2)sc1Cl (stereo not shown) [Compound 339]	> 10	2320	943
CC(CF)n1cc(NC(=O)c2cc(Cl)c(C(F)(F)F)s2)cc(F)c1=O (stereo not shown) [Compound 340]	> 10	4890	695
CSc1cc(C(=O)Nc2cc(F)c(=O)n(CC(F)F)c2)sc1Cl [Compound 341]		9280	668
